In PubChem BioAssay (NCI) one finds GI50 and TGI data, which are given here for 7 compounds.

Some test systems named below: A498 renal; ACHN renal; HCT-116 colon; HOP-62 NSCLC; MCF7 breast; NCI-H460 lung; OVCAR-8 ovarian; SK-MEL-5 melanoma; SN12C renal; U251 CNS.
Assay in all cases: inhibition of tumour cell growth, NCI panel, 48 h

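Each compound was tested at five concentrations against cells in 96-well plates for 48 hours. The concentration for 50% growth inhibition is given as GI50. TGI denotes the concentration required for complete inhibition of growth.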 Some results are limits rather than exact numbers.

As to `CCN1CCC(CCOC)(CN2c3ccccc3Sc3ccc(Cl)cc32)C1` (stereo not given), the GI50 in the test with A498 renal was 1.95 µM; in the test with ACHN renal, 1.78 µM; with HCT-116 colon it was 1.86 µM; with HOP-62 NSCLC it was 1.67 µM; in the test with MCF7 breast it was 1.86 µM; in the test with NCI-H460 lung, 1.9 µM. Also, the GI50 was 2.07 µM in the test on OVCAR-8 ovarian, 1.69 µM in the test on SK-MEL-5 melanoma, 12 µM with SN12C renal and 1.89 µM in the test with U251 CNS. Also, the TGI is 7.39 µM with A498 renal; 3.44 µM in the test on ACHN renal; 3.32 µM in the test with HCT-116 colon; 3.13 µM in the test with HOP-62 NSCLC; 3.54 µM in the test on MCF7 breast; 3.58 µM in the test with NCI-H460 lung. Besides, the TGI in the test on OVCAR-8 ovarian amounted to 4.14 µM; in the test on SK-MEL-5 melanoma, 3.07 µM; in the test with SN12C renal it was 28.2 µM; in the test with U251 CNS, 3.64 µM.

With `N#C/C(=C\c1c(-c2ccccc2)[nH]c2ccccc12)S(=O)(=O)c1ccccc1`, the GI50 in the test with A498 renal was 7.6 µM; in the test with ACHN renal, 6.65 µM; in the test on HCT-116 colon, 1.72 µM; in the test on HOP-62 NSCLC it was 8.06 µM; in the test on MCF7 breast, 2.15 µM; with NCI-H460 lung, 2.73 µM. The GI50 in the test on OVCAR-8 ovarian is 5.82 µM; in the test on SK-MEL-5 melanoma it was 1.82 µM; in the test on SN12C renal it was 5.24 µM; with U251 CNS it was 2.49 µM. Besides, the TGI with A498 renal was > 58.7 µM; in the test with ACHN renal, 75 µM; in the test on HCT-116 colon it was > 76.6 µM; in the test with HOP-62 NSCLC, > 100 µM; in the test with MCF7 breast it was 18.4 µM; in the test with NCI-H460 lung it was 18.3 µM. For the same compound, the TGI in the test with OVCAR-8 ovarian is > 78 µM; with SK-MEL-5 melanoma it was 11.5 µM; with SN12C renal it was 71.8 µM; with U251 CNS, 20.1 µM.

For the compound `CN1CCN(Cc2ccc(NC(=O)c3cncc(C#Cc4cnc(N)c5ccncc45)c3)cc2C(F)(F)F)CC1`, the GI50 with A498 renal is 0.279 µM; in the test on ACHN renal, 0.581 µM; with HCT-116 colon it was 0.442 µM; in the test with HOP-62 NSCLC, 1.03 µM; in the test with MCF7 breast it was 1.93 µM; in the test with NCI-H460 lung it was 0.374 µM. Besides, the GI50 with OVCAR-8 ovarian was 1.42 µM; in the test with SK-MEL-5 melanoma, 1.18 µM; in the test with SN12C renal, 0.837 µM; in the test with U251 CNS, 0.782 µM. The TGI with A498 renal is 1.7 µM; in the test with ACHN renal it was 4.02 µM; in the test with HCT-116 colon, 3.04 µM; with HOP-62 NSCLC it was > 16.6 µM; in the test on MCF7 breast, 8.92 µM; in the test on NCI-H460 lung, 5.81 µM. Further, the TGI is 8.86 µM with OVCAR-8 ovarian, 3.93 µM with SK-MEL-5 melanoma, > 50 µM in the test with SN12C renal and 7.65 µM in the test on U251 CNS.

Consider `c1ccc2c(c1)c(NCCCCN1CCCCC1)cc1c3ccccc3c(NCCCCN3CCCCC3)cc21`, for which the GI50 was 13.6 µM in the test on A498 renal; 15.5 µM in the test with ACHN renal; 5.22 µM in the test on HCT-116 colon; 10.9 µM with HOP-62 NSCLC; 4.76 µM with MCF7 breast; 18.3 µM in the test with NCI-H460 lung. Also, the GI50 was 21.2 µM in the test on OVCAR-8 ovarian, 15.1 µM in the test with SK-MEL-5 melanoma, 17.2 µM with SN12C renal and 7.67 µM in the test on U251 CNS. Besides, the TGI in the test on A498 renal amounted to 32.9 µM; in the test on ACHN renal, 30.5 µM; in the test on HCT-116 colon, 32.7 µM; in the test with HOP-62 NSCLC, 26 µM; with MCF7 breast, 23.2 µM; in the test on NCI-H460 lung it was 53.7 µM. Moreover, the TGI in the test with OVCAR-8 ovarian was 47.2 µM; in the test on SK-MEL-5 melanoma, 31.4 µM; with SN12C renal it was 35.4 µM; in the test on U251 CNS, 29.8 µM.

`O=[N+]([O-])c1cccc(-c2nc3sccn3c2-c2ccnc(NCCCNS(=O)(=O)c3cccc(F)c3)n2)c1`: the GI50 is 1.56 µM in the test with A498 renal; 2.19 µM in the test on ACHN renal; 2.74 µM with HCT-116 colon; 3.5 µM in the test on HOP-62 NSCLC; 2.16 µM in the test on MCF7 breast; 3.34 µM in the test on NCI-H460 lung. The GI50 in the test with OVCAR-8 ovarian was 1.89 µM; in the test with SK-MEL-5 melanoma, 0.824 µM; in the test with SN12C renal it was 2.71 µM; with U251 CNS it was 4.56 µM. Also, the TGI with A498 renal was 30.5 µM; in the test with ACHN renal, 11.2 µM; in the test on HCT-116 colon, > 100 µM; in the test with HOP-62 NSCLC, 14.1 µM; with MCF7 breast it was 8.48 µM; in the test with NCI-H460 lung it was > 100 µM. The TGI came to 17.7 µM in the test on OVCAR-8 ovarian, 2.1 µM in the test on SK-MEL-5 melanoma, 44.8 µM in the test on SN12C renal and 39.4 µM in the test on U251 CNS.

With `C=CC(=O)N1CCN(c2ccc3cccc(NC(=O)c4cnc(C)cn4)c3n2)CC1`, the GI50 in the test on A498 renal is 0.388 µM; in the test on ACHN renal, 0.656 µM; with HCT-116 colon, 2.36 µM; in the test on HOP-62 NSCLC it was 4.24 µM; in the test with MCF7 breast it was 3.44 µM; in the test on NCI-H460 lung it was 2.51 µM. The GI50 with OVCAR-8 ovarian was 3.46 µM; with SK-MEL-5 melanoma, 4.42 µM; with SN12C renal it was 2.47 µM; with U251 CNS it was 3.85 µM. The TGI in the test with A498 renal is 4.19 µM; in the test with ACHN renal it was > 100 µM; with HCT-116 colon it was 20.1 µM; in the test with HOP-62 NSCLC, > 100 µM; with MCF7 breast it was > 100 µM; with NCI-H460 lung, 19.7 µM. Further, the TGI with OVCAR-8 ovarian is > 100 µM; in the test on SK-MEL-5 melanoma, 16.9 µM; in the test with SN12C renal, 16.2 µM; in the test with U251 CNS, 36.4 µM.

As for `CN(C)c1ccc2c(c1)Sc1cc(N(C)C)ccc1N2C(=O)c1ccccc1`, the GI50 is 32.3 µM in the test with A498 renal; 32.4 µM in the test on ACHN renal; 25 µM in the test with HCT-116 colon; 92.4 µM with HOP-62 NSCLC; 37 µM with MCF7 breast; 20.5 µM in the test with NCI-H460 lung. The GI50 in the test with OVCAR-8 ovarian is 50.3 µM; in the test with SK-MEL-5 melanoma, 28.1 µM; in the test with SN12C renal it was > 100 µM; in the test on U251 CNS, 45.5 µM. In addition, the TGI in the test with A498 renal, in the test with ACHN renal, in the test on HCT-116 colon, in the test with HOP-62 NSCLC, with MCF7 breast and in the test with NCI-H460 lung was > 100 µM in each case. In addition, the TGI in the test on OVCAR-8 ovarian, in the test with SK-MEL-5 melanoma, in the test on SN12C renal and in the test with U251 CNS was > 100 µM each time.
